Results published in patent EP0640095B1, “PROCESS FOR MAKING VANCOMYCIN” (ABBOTT LABORATORIES, priority 1992, dated 1993).
Converted amounts (≈) assume the structure as drawn.

Assay: Solubility of vancomycin as a function of pH (base crystallization)
Assay type: physicochemical
Conditions: pH 9; pH of 9.0 to 9.5
From the text: Prior to the base crystallization step, the pH of the solution must be optimized to maximize the efficiency of the crystallization. […]

CN[C@H](CC(C)C)C(=O)N[C@H]1C(=O)N[C@@H](CC(N)=O)C(=O)N[C@H]2C(=O)N[C@H]3C(=O)N[C@H](C(=O)N[C@H](C(=O)O)c4cc(O)cc(O)c4-c4cc3ccc4O)[C@H](O)c3ccc(c(Cl)c3)Oc3cc2cc(c3O[C@@H]2O[C@H](CO)[C@@H](O)[C@H](O)[C@H]2O[C@H]2C[C@](C)(N)[C@H](O)[C@H](C)O2)Oc2ccc(cc2Cl)[C@H]1O [vancomycin]
solubility: 5 to 20 mg/mL (≈ 3.45 to 13.8 mM)
